Data from ChEMBL document CHEMBL1128624, “Syntheses of -, -monoglycosylceramides and four diastereomers of an -galactosylceramide” (Bioorg Med Chem Lett, 1995).
Activity calls are given as the source filed them. No cut-off for these calls is given here.

Species on record: Mus musculus
Assay: Antitumor activity against B16-melanoma bearing mice; active
Assay type: functional, organism-based

SMILES | Activity
CCCCCCCCCCCCCCCCCCCCCC[C@@H](O)C(=O)N[C@@H](CO[C@H]1O[C@@H](CO)[C@H](O)[C@H](O)[C@@H]1O)[C@H](O)[C@H](O)CCCCCCCCCCCC(C)CC (some centres undefined) | Active
CCCCCCCCCCCCCCCCCCCCCC[C@@H](O)C(=O)N[C@@H](CO[C@H]1O[C@@H](CO)[C@H](O)[C@H](O)[C@@H]1O)[C@H](O)[C@H](O)CCCCCCCCCCCC | Active
CCCCCCCCCCCCCCCCCCCCCC[C@@H](O)C(=O)N[C@@H](CO[C@H]1O[C@@H](CO)[C@H](O)[C@H](O)[C@@H]1O)[C@H](O)[C@H](O)CCCCCCCCCCCC(C)C | Active
CCCCCCCCCCCCCCCCCCCCCCC[C@@H](O)C(=O)N[C@@H](CO[C@H]1O[C@@H](CO)[C@H](O)[C@H](O)[C@@H]1O)[C@H](O)[C@H](O)CCCCCCCCCCCC(C)CC (some centres undefined) | Active
